Values after ≈ are worked out from the molar mass of the structure shown. Values joined by “and” are separate entries in the source; they are usually repeats but may differ in a detail not shown here. Equal entries are not always repeated. Where two headings read alike, the source gives them in different places.
What was measured:
[1] = system: CX-1 Human Colon Carcinoma; assay: Clonogenic dye screening assay, CX-1 cells (IC50); format: cell-based; conditions: for CV/CX (selectivity, kill ratio): ratio of IC50 in normal CV-1 line to IC50 in carcinoma CX-1 line; for IC50: Homo sapiens; for Selectivity: Table 1, cell line not given, values equal CV/CX of Table II; for CV/CX: selectivity ratio of IC50 values; for CX (IC50 in the CX-1 cell line): 3 hrs treatment, unit from method b117-118
In short: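 Cells seeded 16-30 h ahead (2000 CX-1 or 1000 CV-1 per well), exposed to serially diluted dyes for 3 h at 37 °C, rinsed three times, then grown into colonies. Eight-point curves spanned 0.32-0.0015 μg/mL (CX-1) and 3.2-0.025 μg/mL (CV-1). IC50 is the concentration killing 50% of cells.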

[2] = system: CV-1 Normal Monkey Kidney Epithelial; assay: Clonogenic dye screening assay, CV-1 cells (IC50); format: cell-based, African green monkey; conditions: for CV (IC50 in the CV-1 cell line): 3 hrs treatment, unit from method b117-118; for IC50: Primates
Excerpt: CX-1 is a cancerous human colon adenocarcinoma cell line. CV-1 is a non-cancerous control, which is a kidney epithelial cell line from an African green monkey. IC50 is the dye concentration at which 50% of the cells are killed. Selectivity or kill ratio is defined as the ratio of […] at IC50 for both CX-1 and CV-1. A ratio with a high number indicates a high selectivity.
The dyes were screened in two cell lines. CX-1 is a human colon adenocarcinoma cell line. CV-1 is a kidney epithelial cell line from an African green monkey. CV-1 was used as a reference because no normal human epithelial cell line is available for clonogenic assay.
In the initial screen, dyes were examined at six different concentrations to generate a dose response curve. An IC50 value, the concentration at which 50% of the cells are killed, was then calculated. Initially, a dye concentration of 1.0 μg/mL was the highest examined for the CX-1 cell line and 0.005 μg/mL was the lower limit. The corresponding limits on the CV-1 cell line were […].
The screening procedure used a response curve that was determined from eight dye concentrations. The upper and lower limits of CX-1 were 0.32 and 0.0015 μg/mL, respectively, and the corresponding revised limits on CV-1 were 3.2 and 0.025 μg/mL. The screening results were reported by assigning an IC50 value to each dye for the CV-1 and CX-1 cell lines. These values will be referred to herein simply as CV and CX. The most desirable result would be to have a dye that was highly toxic to carcinoma cells but nontoxic to ‘normal’ cells. One measure of this type of selectivity is the ratio of the IC50's in the normal cell line to that in the carcinoma line, CV/CX.
Compounds are screened via an in vitro assay. CV-1 and CX-1 cells are seeded into separate assay plates. The plates are treated with varying concentrations of test compounds, rinsed, and colonies allowed to grow. IC50's are determined and drugs evaluated based on their selectivity and toxicity. Assay Steps: • I. Seeding Cells • II. Weighing • III. Preparation of Solution • IV. Treatment • V. Rinsing and Feeding • VI. Fixing • VII. IC50 Determination I. Seeding Cells
The cells should be seeded 16-30 hours before treatment. The media for CV-1 cells is DME+5% calf serum +5% Nuserum. The media for CX-1 cells is RPMI/DME (50/50)+5% calf serum +5% Nuserum.
(c) number of cells based on 2000 CX-1 cells/well and 1000 CV-1 cells/well. NOTE: Always make enough cell suspension for 1 extra plate to allow for volume loss during transfers.
• (a) For CV-1: 256 ug/ml-256 ul of 1 mg/ml stock +744 ul DMSO • (b) For CX-1: 25.6 ug/ml-100 ul of 256 ug/ml+900 ul DMSO IV. Treatment • 1. Each plate is treated with 4 test compounds, one positive control and one negative control. • 2. Serial dilutions of the compounds are made in the following way:
2 multi-well pipetters are used. One is set for 10 ul and one for 200 ul. Each is equipped with 6 tips spaced such that they fit into the 6 rows of a plate. 390 ul of media is added to the first column of each plate. 10 ul each of 4 compound solutions, a positive and a negative control are taken up and put into the first column of wells. The 200 ul pipetter is then placed in the same wells, pipetted up and down 3 times and two 200 ul aliquots are moved to the next column of wells. This column is pipetted up and down 3 times and 400 ul moved to column 3, etc. The final 400 ul excess from column 8 is discarded.
• 3. Label the plates along the front, each row −1 compound. • 4. Incubate the plates at 37° C. for 3 hrs. V. Rinsing • 1. Prepare several bottles of CX-1 and CV-1 media. • 2. Check for precipitate in first column of each plate and note. • 3. Starting with the plates treated first, rinse several plates at a time by aspirating the treatments and refilling each well with 0.5-1.0 ml of the rinse media. Aspirate and refill 2 more times for a total of 3 rinses. • 4.

[3] = CX-1, 3 hrs treatment, colonies after 7-10 days, unit from method, read-out: CX (IC50 in the CX-1 cell line)
[4] = CV-1, 3 hrs treatment, colonies after 7-10 days, unit from method, read-out: CV (IC50 in the CV-1 cell line)
[5] = CX-1, read-out: CX (IC50 in the CX-1 cell line)
[6] = CV-1, read-out: CV (IC50 in the CV-1 cell line)

Compound	CV/CX (selectivity, kill ratio) [1]	CV (IC50 in the CV-1 cell line) ([2]; colonies after 7-10 days)	IC50 [1, 3]	IC50 [2, 4]	further results
CCN1/C(=C/C=C/c2oc3ccccc3[n+]2CC)Sc2ccc(O)cc21.[I-] [Dye D-128]	60	0.3 µg/mL			
CN1/C(=C/c2ccc3ccc4ccccc4c3[n+]2C)Sc2ccccc21 [Dye D-130]	100		0.005 µg/mL	0.5 µg/mL	
CC[n+]1c(/C=C/C=C2/c3c(C)ccc(C)c3C(C)(Cc3ccccc3)N2C)sc2ccccc21 [Dye D-132]	430 and 428.57		0.007 µg/mL	3 µg/mL	IC50 ([1]; CX-1, Table XVI, unsymmetrical dyes, CX-1 cells, read-out: CX): 0.007 µg/mL; Selectivity [1]: 428.57; CV/CX ([1]; Table XVI): 428.6; IC50 ([2]; CV-1, Table XVI, unsymmetrical dyes, CV-1 cells, read-out: CV): 3 µg/mL
CC[n+]1c(/C=C/C=C2/c3c(C)ccc(C)c3C(C)(Cc3ccccc3)N2C)sc2ccc3ccccc3c21 [Dye D-133]	333.5		0.009 µg/mL	3 µg/mL	Selectivity [1]: 333.5
CCN1/C(=C/C=C/c2sc3ccccc3[n+]2CC)[Se]c2ccc(OC)cc21 [Dye D-134]	80				IC50 [1, 5]: 0.0025 µg/mL; IC50 [2, 6]: 0.2 µg/mL
CCN1/C(=C/C=C/c2sc3ccccc3[n+]2CC)[Se]c2ccc(Cl)cc21 [Dye D-135]	>200.0 and 200				IC50 [1, 5]: < 0.005 µg/mL; Selectivity [1]: 200; IC50 [2, 6]: 1 µg/mL
CCN1/C(=C/C=C/c2oc3ccc(OC)cc3[n+]2CC)Sc2ccccc21.[I-] [Dye D-136]	>60.0 and 60	0.3 µg/mL			CX (IC50 in the CX-1 cell line) ([1]; colonies after 7-10 days): <0.005 µg/mL
CCN1/C(=C/C(=C/c2oc3ccccc3[n+]2CC)SC)Sc2ccccc21.[I-] [Dye D-137]	100	3.0 µg/mL			CX (IC50 in the CX-1 cell line) ([1]; colonies after 7-10 days): 0.03 µg/mL
CCN1/C(=C/C=C/c2oc3ccc(SC)cc3[n+]2C)Sc2ccccc21.[I-] [Dye D-138]	>60.0 and 60	0.3 µg/mL			CX (IC50 in the CX-1 cell line) ([1]; colonies after 7-10 days): <0.005 µg/mL
CCN1/C(=C(\C=C\c2oc3ccccc3[n+]2CC)c2ccccc2)Sc2ccccc21.[I-] [Dye D-139]	100	3.0 µg/mL			CX (IC50 in the CX-1 cell line) ([1]; colonies after 7-10 days): 0.03 µg/mL
CCN1/C(=C/C=C/c2cc3scc([S-])[n+]3c3ccccc23)Oc2ccccc21 [Dye D-141]	100		< 0.005 µg/mL	0.5 µg/mL (≈ 1.24 µM)	
CCSC(=C\c1oc2ccccc2[n+]1CC)/C=C1\Sc2ccccc2N1CC.[I-] [Dye D-142]		0.5 µg/mL			CX (IC50 in the CX-1 cell line) ([1]; colonies after 7-10 days): <0.005 µg/mL
CC[n+]1c(/C=C/C=C2\SCCCN2C)sc2ccccc21 [Dye D-144]	100		0.03 µg/mL	3 µg/mL	
CC[n+]1c(/C=C/C=C2\OC=C(c3ccccc3)N2C)sc2ccccc21 [Dye D-145]	60		< 0.005 µg/mL	0.3 µg/mL	
CCN1/C(=C/C=C/c2sc3c([n+]2C)CCCC3)Sc2ccccc21 [Dye D-146]	75.0 and 60		≤ 0.004 µg/mL	0.3 µg/mL	
CCC(/C=C1\Sc2ccc(Cl)cc2N1C)=C\c1oc2ccc(-c3ccccc3)cc2[n+]1C [Dye D-147]	160		0.05 µg/mL	8 µg/mL	
CCN1/C(=C/C=N/c2sc3ccccc3[n+]2CC)Sc2ccccc21 [Dye D-149]	77.8		0.09 µg/mL	7 µg/mL	
CC[n+]1c(/C=C/C=C2\[Te]c3ccccc3N2C)sc2ccccc21 [Dye D-152]	60				IC50 ([1]; CX-1, read-out: CX): < 0.005 µg/mL; IC50 [1, 5]: < 0.005 µg/mL; CV/CX ([1]; Table XVI): >60.0; CX ([1]; Table XVII, benzotellurazole derivatives, CX-1 cells): <0.005; CV/CX ([1]; Table XVII): >60.0; IC50 ([2]; CV-1, read-out: CV): 0.3 µg/mL; IC50 [2, 6]: 0.3 µg/mL
CCN1/C(=C/C=C/c2oc3ccc(-c4ccccc4)cc3[n+]2CCOC(C)=O)Sc2ccccc21 [Dye D-153]	100		0.03 µg/mL	3 µg/mL	
CC[n+]1c(/C=C/c2ccc(N(C)C)cc2)[te]c2ccc(C)cc21 [Dye D-156]	60				IC50 [1, 5]: 0.05 µg/mL; IC50 [2, 6]: 3 µg/mL
CCN1/C(=C/C=C/C=C/c2sc3cc4ccccc4cc3[n+]2CC)Sc2cc3ccccc3cc21 [Dye D-162]	60			3 µg/mL	
CCN1/C(=C/C=c2\s/c(=C\c3sc4ccccc4[n+]3CC)n(CCC(=O)O)c2=O)Sc2ccccc21 [Dye D-167]	100.0			10 µg/mL	
CC(=CC(C)=C1Sc2ccccc2N1C)c1sc2ccccc2[n+]1C [drawing 38|M|Me|H|Me]	2.5	0.5 µg/mL			CX (IC50 in the CX-1 cell line) ([1]; colonies after 7-10 days): 0.2 µg/mL
CCN1/C(=C/C(C)=C/c2sc3ccc4ccccc4c3[n+]2CC)Oc2ccc3ccccc3c21 [drawing 40|E|Me]	3.33 and 2.0	0.1 µg/mL			CX (IC50 in the CX-1 cell line) ([1]; colonies after 7-10 days): 0.03 µg/mL and 0.05 µg/mL

Source: US20060099712A1, “Correlation of anti-cancer activity of dyes with redox potentials” (Eastman Kodak Company, priority 2004, published 2006)
